Laboratory results taken from PubChem BioAssay (NCI).
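Tested at 5 concentrations; 48 h exposure; 96-well plates; endpoints linearly interpolated, else capped at highest concentration. The concentration for 50% growth inhibition is given as GI50. At the TGI there is no net growth.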

Tests used:
Assay in all cases: inhibition of tumour cell growth, NCI panel, 48 h
[1] = tested on: 786-0 renal
[2] = tested on: A498 renal
[3] = tested on: A549 NSCLC
[4] = tested on: ACHN renal
[5] = tested on: BT-549 breast
[6] = tested on: CAKI-1 renal
[7] = tested on: CCRF-CEM leukemia
[8] = tested on: COLO 205 colon
[9] = tested on: DU-145 prostate
[10] = tested on: EKVX NSCLC
[11] = tested on: HCC-2998 colon
[12] = tested on: HCT-116 colon
[13] = tested on: HCT-15 colon
[14] = tested on: HL-60(TB) leukemia
[15] = tested on: HOP-62 NSCLC
[16] = tested on: HOP-92 NSCLC
[17] = tested on: HS 578T breast
[18] = tested on: HT29 colon
[19] = tested on: K-562 leukemia
[20] = tested on: KM12 colon
[21] = tested on: LOX IMVI melanoma
[22] = tested on: M14 melanoma
[23] = tested on: MALME-3M melanoma
[24] = tested on: MCF7 breast
[25] = tested on: MDA-MB-231 breast
[26] = tested on: MDA-MB-435
[27] = tested on: MOLT-4 leukemia
[28] = tested on: NCI-H226 lung
[29] = tested on: NCI-H23 lung
[30] = tested on: NCI-H460 lung
[31] = tested on: NCI-H522 lung
[32] = tested on: NCI/ADR-RES ovarian
[33] = tested on: OVCAR-3 ovarian
[34] = tested on: OVCAR-4 ovarian
[35] = tested on: OVCAR-5 ovarian
[36] = tested on: OVCAR-8 ovarian
[37] = tested on: PC-3 prostate
[38] = tested on: RPMI-8226 leukemia
[39] = tested on: RXF 393 renal
[40] = tested on: SF-268 CNS
[41] = tested on: SF-539 CNS
[42] = tested on: SK-MEL-2 melanoma
[43] = tested on: SK-MEL-28 melanoma
[44] = tested on: SK-MEL-5 melanoma
[45] = tested on: SK-OV-3 ovarian
[46] = tested on: SN12C renal
[47] = tested on: SNB-19 CNS
[48] = tested on: SNB-75 CNS
[49] = tested on: SR leukemia
[50] = tested on: SW-620 colon
[51] = tested on: T-47D breast
[52] = tested on: TK-10 renal
[53] = tested on: U251 CNS
[54] = tested on: UACC-257 melanoma
[55] = tested on: UACC-62 melanoma
[56] = tested on: UO-31 renal

Compound: O=c1ncc(I)cn1C1CC(O)C(CO)O1 (stereo unspecified)
- GI50 [1]: 3100 µM
- TGI [1]: > 3250 µM
- TGI [2]: > 3250 µM
- GI50 [3]: 2460 µM
- TGI [3]: > 3250 µM
- GI50 [4]: 3120 µM
- TGI [4]: > 3250 µM
- GI50 [5]: 1510 µM
- TGI [5]: > 3250 µM
- GI50 [6]: 1470 µM
- TGI [6]: > 3250 µM
- GI50 [7]: 709 µM
- TGI [7]: > 3250 µM
- GI50 [8]: 1210 µM
- TGI [8]: > 3250 µM
- GI50 [9]: 1530 µM
- TGI [9]: > 3250 µM
- GI50 [10]: > 3250 µM
- TGI [10]: > 3250 µM
- GI50 [11]: 2910 µM
- TGI [11]: > 3250 µM
- GI50 [12]: 1310 µM
- TGI [12]: > 3250 µM
- GI50 [13]: 1680 µM
- TGI [13]: > 3250 µM
- GI50 [14]: 613 µM
- TGI [14]: > 3250 µM
- GI50 [15]: 2940 µM
- TGI [15]: > 3250 µM
- GI50 [16]: > 3250 µM
- TGI [16]: > 3250 µM
- GI50 [17]: > 3250 µM
- TGI [17]: > 3250 µM
- GI50 [18]: 1830 µM
- TGI [18]: > 3250 µM
- GI50 [19]: 1220 µM
- TGI [19]: > 3250 µM
- GI50 [20]: 1740 µM
- TGI [20]: > 3250 µM
- GI50 [21]: 982 µM
- TGI [21]: > 3250 µM
- GI50 [22]: 1110 µM
- TGI [22]: > 3250 µM
- GI50 [23]: > 3250 µM
- TGI [23]: > 3250 µM
- GI50 [24]: 1430 µM
- TGI [24]: > 3250 µM
- GI50 [25]: > 3250 µM
- TGI [25]: > 3250 µM
- GI50 [26]: 1020 µM
- TGI [26]: > 3250 µM
- GI50 [27]: 1170 µM
- TGI [27]: > 3250 µM
- GI50 [28]: > 3250 µM
- TGI [28]: > 3250 µM
- GI50 [29]: 1620 µM
- TGI [29]: > 3250 µM
- GI50 [30]: 1540 µM
- TGI [30]: > 3250 µM
- GI50 [31]: 668 µM
- TGI [31]: 1250 µM
- GI50 [32]: 1750 µM
- TGI [32]: > 3250 µM
- GI50 [33]: 1070 µM
- TGI [33]: > 3250 µM
- GI50 [34]: 1510 µM
- TGI [34]: > 3250 µM
- GI50 [35]: > 3250 µM
- TGI [35]: > 3250 µM
- GI50 [36]: 2610 µM
- TGI [36]: > 3250 µM
- GI50 [37]: > 3250 µM
- TGI [37]: > 3250 µM
- GI50 [38]: > 3250 µM
- TGI [38]: > 3250 µM
- GI50 [39]: > 3250 µM
- TGI [39]: > 3250 µM
- GI50 [40]: 2110 µM
- TGI [40]: > 3250 µM
- GI50 [41]: 2360 µM
- TGI [41]: > 3250 µM
- GI50 [42]: > 3250 µM
- TGI [42]: > 3250 µM
- GI50 [43]: 3150 µM
- TGI [43]: > 3250 µM
- GI50 [44]: 2000 µM
- TGI [44]: > 3250 µM
- GI50 [45]: 2100 µM
- TGI [45]: > 3250 µM
- GI50 [46]: 2710 µM
- TGI [46]: > 3250 µM
- GI50 [47]: > 3250 µM
- TGI [47]: > 3250 µM
- GI50 [48]: > 3250 µM
- TGI [48]: > 3250 µM
- GI50 [49]: 1170 µM
- TGI [49]: > 3250 µM
- GI50 [50]: 1130 µM
- TGI [50]: > 3250 µM
- GI50 [51]: 2220 µM
- TGI [51]: > 3250 µM
- GI50 [52]: > 3250 µM
- TGI [52]: > 3250 µM
- GI50 [53]: 1160 µM
- TGI [53]: > 3250 µM
- GI50 [54]: > 3250 µM
- TGI [54]: > 3250 µM
- GI50 [55]: 1480 µM
- TGI [55]: > 3250 µM
- GI50 [56]: 711 µM
- TGI [56]: 1760 µM
